Experiment [1] deals with C57/BL6 mice. As to the kind of experiment: bleomycin-induced pulmonary fibrosis in mice. It is filed as in vivo. The method, then:
To determine the effects of compound 1 in treatment of a fibrosing disease, pulmonary fibrosis was selected as a model. Pulmonary fibrosis was induced in C57/BL6 mice by oropharyngeal aspiration of bleomycin into their lungs. 24 hour after bleomycin administration, mice received daily intraperitoneal injections of compound 1. At day 21 mice were euthanized and the bronchoalveolar lavage fluid (BAL) and the lungs were harvested.
The successful aspiration of bleomycin into the lungs was confirmed by listening for the crackling noise heard after the aspiration. Starting 24 hours following bleomycin aspiration (day 1), mice were treated daily with intraperitoneal injections of 50 microliters of PBS containing 2 microliters of 1 mg/ml of compound 1 (ChemBridge Corporation, San Diego, Calif.) (0.1 mg/kg) dissolved in DMSO (SigmaAldrich), 2 microliters of 0.1 mg/ml of compound 1 (0.01 mg/kg) dissolved in DMSO, 2 microliters of 0.01 mg/ml of compound 1 (0.001 mg/kg) dissolved in DMSO, or an equal volume of PBS containing 2 microliters of DMSO. All animals were used in accordance with rules published by the National Institutes of Health and with a protocol approved by the Texas A&M University Institutional Animal Care and Use Committee. Mice were weighed daily, and euthanized using CO2 following NIH guidelines at day 21 after bleomycin aspiration. No injections were done on day 21. […] The BAL cells from the first BAL collection were collected by centrifugation at 500×g for 10 minutes, and the supernatants were transferred to Eppendorf tubes. The supernatants were flash frozen with liquid nitrogen, and stored at −20° C. until further use. The BAL pellets were resuspended in the secondary and tertiary BAL fluid and the combined cells were collected by centrifugation at 500×g for 5 minutes. The cells were resuspended in 500 microliters of 4% (w/v) BSA-PBS and counted with a hemocytometer. 100 microliters of diluted cells were then aliquoted into cytospin funnels and were then spun onto glass slides (Superfrost plus white slides, VWR) at 400×g for 5 minutes using a cytospin centrifuge (Shandon, Cheshire, England). These cells were then air-dried, and stained for CD11b (Biolegend) or CD11c (MBL International, Woburn, Mass.) as described below.
After collection of BAL fluid, mouse lungs were inflated with prewarmed OCT (VWR, Radnor, Pa.) and then embedded in OCT, frozen on dry ice, and then stored at −80° C. 6-micron cryosections of mouse lung were mounted on Superfrost Plus microscope slides (VWR). Sections were fixed in acetone for 20 min at room temperature. […] After washing, the biotinylated antibodies were detected by streptavidin-alkaline phosphatase (Vector Laboratories) following the manufacturer's protocol. […]

Experiment [2] has as its system fibrocyte formation from human PBMCs. Nature of the experiment: fibrocyte formation (differentiation) assay with PBMCs in serum-free medium. The following applies: for IC50: PBMC, read-out: IC50 of inhibition of fibrocyte formation; for effect on fibrocyte formation / differentiation (in words): counts normalized to control; for concentration at which fibrocyte formation was significantly inhibited: p<0.05 (t-test). It counts as cell-based. An excerpt: (§1) Human blood was collected into heparin tubes (BD Bioscience, San Jose, Calif.) from adult volunteers who gave written consent and with specific approval from the Texas A&M University human subjects Institutional Review Board. PBMCs were then isolated as previously described in Pilling, D. et al., Improved serum-free culture conditions for differentiation of human and murine fibrocytes, Journal of Immunology Methods 351:62-70 (2009), incorporated in material part by reference herein. Alamar Blue (Life Technologies, Grand Island, N.Y.) was used to assess cell viability following the manufacturer's protocol. Fibrocyte differentiation assays in the presence of different compounds were performed in serum-free medium as described in Pilling, D. et al., Improved serum-free culture conditions for differentiation of human and murine fibrocytes, Journal of Immunology Methods 351:62-70 (2009) which is incorporated in material part by reference herein. Macrophage polarization assays to detect formation of proinflammatory macrophages with an M1 phenotype were carried out in serum-free medium, in which case monocytes were left to differentiate to macrophages for 5 days and then the medium was replaced with fresh medium containing 3 microgram/ml of the tested protein.

Experiment [3] has as its system macrophages. As to the kind of experiment: macrophage polarization assay (M1 marker ICAM-1, M2 marker CD163). It counts as cell-based, human. The settings on record: 3 microgram/ml protein.
Description: as §1
Macrophage staining with anti-CD163 and anti-ICAM-1 antibodies was carried out as described in Pilling, D. et al., Identification of markers that distinguish monocyte-derived fibrocytes from monocytes, macrophages, and fibroblasts, PloS one 10:e7475 (2009) which is incorporated in material part by reference herein. Both primary antibodies were used at a concentration of 5 microgram/ml.

The mark [4] stands for this setting: 0.1, 0.01 and 0.001 mg/kg daily intraperitoneal, day 21.

Usually IC50 stands for the concentration that inhibits the measured activity by half.

Consider `CCC(=O)Nc1nc(C)c(-c2csc(Nc3ccc(N(C)C)cc3)n2)s1` [Compound 1], for which, in experiment [1] (setting [4]), the “CD11b positive inflammatory macrophages in the BAL vs bleomycin control” value is on record as “significantly decreased” and the “collagen in the lungs (picrosirius red) vs bleomycin alone” value is on record as “significantly less collagen in the lungs”. Further, the “number of CD11b positive inflammatory macrophages in the lung sections” value in experiment [1] (0.1 and 0.01 mg/kg daily intraperitoneal, day 21, after BAL) is “significantly decreased”. Further, the “CD11c positive macrophages in the BAL” value in experiment [1] (daily intraperitoneal injections, day 21) was “not altered significantly”. Besides, the IC50 in experiment [2] amounted to 0.0031 nM.
For the molecule `CCCOC(=O)c1ccc(-c2ccc(C=C3C(=O)N(c4ccc(S(N)(=O)=O)cc4)N=C3C(F)(F)F)o2)cc1` [Compound 2], the IC50 in experiment [2] was 0.33 nM.
`COC(=O)c1ccc(-c2ccc(C=C3C(=O)N(c4ccc(S(N)(=O)=O)cc4)N=C3C(F)(F)F)o2)cc1` [Compound 3]: in experiment [2], the IC50 was found to be 2.2 nM and the “effect on fibrocyte formation / differentiation (in words)” value is reported as “significantly inhibited fibrocyte formation at all tested concentrations”.
Regarding “SAP NA: enzymatically (neuraminidase) desialylated SAP lacking the terminal sialic acids”, the “effect on fibrocyte formation / differentiation (in words)” value in experiment [2] is on record as “reduced inhibitory effect on fibrocyte differentiation”. Also, in experiment [3], the “expression of the M1 marker ICAM-1” value was “increased the expression of the M1 marker ICAM-1” and the “expression of the M2 marker CD163” value is “did not”.
With “SAP: Serum amyloid P, 125 kDa pentameric pentraxin protein”, the “concentration at which fibrocyte formation was significantly inhibited” value in experiment [2] is given as no less than 0.25 microgram/ml. In experiment [3], the “expression of the M1 marker ICAM-1” value is “did not cause such an increase” and the “expression of the M2 marker CD163” value is on record as “increased the expression of the M2 marker CD 163”.

B1: CRP A32N: CRP glycosylated by mutating its 32nd amino acid from alanine to asparagine (protein, UniProt P02741 19-224, looked up, variant A32N)
C-reactive protein: QTDMSRKAFVFPKESDTSYVSLKAPLTKPLKNFTVCLHFYTELSSTRGYSIFSYATKRQDNEILIFWSKDIGYSFTVGGSEILFEVPEVTVAPVHICTSWESASGIVEFWVDGKPRVRKSLKKGYTVGAEASIILGQEQDSFGGNFEGSQSLVGDIGNVNMWDFVLSPDEINTIYLGGPFSPNVLNWRALKYEVQGEVFTKPQLWP
Turning to B1, in experiment [2], the “effect on fibrocyte formation / differentiation (in words)” value is listed as “able to inhibit fibrocyte formation, although not as well as SAP” and the “concentration at which fibrocyte formation was significantly inhibited” value is listed as no less than 1 microgram/ml. Moreover, in experiment [3], the “expression of the M1 marker ICAM-1” value was “did not cause such an increase” and the “expression of the M2 marker CD163” value is on record as “increased the expression of the M2 marker CD 163”.

B2: CRP: C-reactive protein, 51% sequence identity with SAP (protein, UniProt P02741 19-224, looked up)
C-reactive protein: QTDMSRKAFVFPKESDTSYVSLKAPLTKPLKAFTVCLHFYTELSSTRGYSIFSYATKRQDNEILIFWSKDIGYSFTVGGSEILFEVPEVTVAPVHICTSWESASGIVEFWVDGKPRVRKSLKKGYTVGAEASIILGQEQDSFGGNFEGSQSLVGDIGNVNMWDFVLSPDEINTIYLGGPFSPNVLNWRALKYEVQGEVFTKPQLWP
Consider B2, for which, in experiment [3], the “expression of the M1 marker ICAM-1” value was “increased the expression of the M1 marker ICAM-1” and the “expression of the M2 marker CD163” value is “did not”.

Values taken from patent US20160272713A1, “Fibrosis Inhibiting Compounds and Methods of Use Thereof in the Prevention or Treatment of Fibrosing Diseases” (priority 2013, published 2016).
